Measured values as given in patent US20160310510A1, “MEDICINAL COSMETIC LIPOATROPHY” (priority 2009, published 2016).
“Also recorded” adds a separate entry of the source.

Legend:
[1] = tested on: SQ adipose tissue of the face; experiment: Facial MRI before and after triamcinolone injections, thickness of SQ adipose tissue; assay type: in vivo, human
Experimental: (§1) A series of cases of small localized fat deposits on the face were treated with local triancinolone from March 2005 to October 2008 at a private clinic in Porto Alegre, southern of Brazil. […] They received injections of triamcinolone (Kenalog®-40 Injection) diluted in anesthetic solution (0.02 g/mL Lidocaine plus 0.0004 g/mL Phenilephrine—Novocol®), in different doses and number of applications (up to 3 injections, once a month), according to patient's needs. […] Patients received injections in these fatty areas of the face, through a 0.3 cc BD Ultra Fine II syringe with short needle of minimum 7 or 8 mm long.
One patient was submitted to a facial Magnetic Resonance Imaging (MRI) exam before and after the triamcinolone injections, in order to show the results in terms of the changes in the thickness of subcutaneous tissue. Magnetic resonance imaging examination was performed with 1.5 Tesla Closed Bore Scanner (Magnetom Symphony Maestro Class, Siemens, Erlangen, Germany) with dedicated flexible coils. T1-weighted (600 ms/14 ms, Time Repetition/Time Echo) and T2-weighted (2500 ms/45 ms, TR/TE) turbo spin echo sequences were performed in coronal, axial and sagittal planes, with emphasis on the sagittal plane. An experienced radiologist evaluated the MRI images. The thickness of SQ adipose tissue was measured with Syngo software (Siemens, Erlangen, Germany) in millimetres (mm).

adipocytes = experiment: Punch biopsies before and after single treatment, HE histology and morphometry of adipocytes; assay type: in vivo, human
Experimental: as §1
Another patient was submitted to 3 mm punch biopsies (one on the submental area and another on suprapubical area) before and after single treatment. Histological specimens of SQ tissue were stained with hematoxylin and eosin (HE stain) and […] was also performed in the histological images of before and after treatment samples.

[2] = cited from earlier work
[3] = tested on: small localized fat deposits on the face; experiment: Retrospective series of 56 patients treated with local triamcinolone injections: clinical evaluation, satisfaction, side effects

## CC1(C)O[C@@H]2C[C@H]3[C@@H]4CCC5=CC(=O)C=C[C@]5(C)[C@@]4(F)[C@@H](O)C[C@]3(C)[C@]2(C(=O)CO)O1 [triamcinolone, Triamcinolone acetonide]
[1]; after single session of injections, FIGS. 3 and 4
  reduction of the thickness of the study area of facial fat (MRI): 27.3%
[1]; after single session, before treatment 1.1 cm
  thickness of the study area of facial fat after treatment (MRI): 0.8 cm
[1]; mandibular area
  reduction of the fat thickness showed by MRI: 37.5%
[1]; mandibular area, before treatment 0.8 cm
  fat thickness after treatment (MRI): 0.5 cm
[1]; submental area
  reduction of the fat thickness showed by MRI: 33.3%
[1]; submental area, before treatment 0.6 cm
  fat thickness after treatment (MRI): 0.4 cm
adipocytes; before and after single treatment biopsies
  reduction in the volume of adipocytes in the sites of the injections (histological analysis): about 30%
adipocytes; suprapubical area biopsy, one month after a single injection, before treatment 4
  average number of adipocytes observed in the optical field at the same magnification: 7 adipocytes per field
adipocytes; suprapubical area biopsy, one month after a single injection, before treatment 190
  average diameter of the adipocytes: 153 pixels
adipocytes; suprapubical area biopsy, one month after a single injection, before treatment 31661
  average area of the adipocytes: 21705 pixels
[2]; intralesional injections, Pariser and Murray 1963
  concentration with greater risk of cutaneous atrophy: above 5 mg/cm^3
[2]; local injections
  safe dose: less than 0.15 mg/kg
[3]; 29 subjects (51.78%) who returned for evaluation
  subject satisfaction with the results of the procedure: very satisfied
[3]; 29 subjects who returned for evaluation
  physician evaluation of clinical and cosmetic improvement: good clinical and cosmetic improvement of facial contour
[3]; Kenalog-40 diluted in lidocaine plus phenilephrine, up to 3 monthly subcutaneous injection sessions
  serious / severe adverse events: No severe local or systemic side effects were observed; also recorded: did not presented serious adverse events
[3]; during and after the injections
  local side effects observed: pain and slight erythema; also recorded: hematomas in variable number and size
[3]; of the treated series
  number of patients with cosmetic local side effects: three
